This note sets out measurements from ChEMBL document CHEMBL1125650, “Relationships between the structure of taxol analogues and their antimitotic activity” (J Med Chem, 1991).

≈ marks a conversion by molar mass, not a printed value.

One test is filed under the species Sus scrofa. Nature of the test: Ratio of the concentration leading to a 50% inhibition of the rate of pig brain microtubule disassembly to that of taxol (0.4 uM) was determined. Type of test: functional.
In another test the test system is P388. Nature of the test: The concentration required to 50% inhibition of the P388 leukemic cell proliferation. In kind it is functional, cell-based. Conditions: Mus musculus.
Test [1] is described as follows: Ratio of the concentration of compound leading to a 50% inhibition of the rate of pig brain microtubule disassembly to that of compound 13a was determined. In kind it is functional.
Test [2] can be described thus: Cytotoxicity was measured as ratio of its IC50 value to that of compound 13a. In kind it is functional.

`CC(=O)O[C@@]12CO[C@@H]1C[C@H](O)[C@@]1(C)C(=O)[C@H](O)C3=C(C)[C@@H](OC(=O)CC(NC(=O)OC(C)(C)C)c4ccccc4)C[C@@](O)([C@@H](OC(=O)c4ccccc4)[C@H]21)C3(C)C` (single isomer, unassigned; 10b): in the test listed under Sus scrofa, the Ratio was 4.1. `CC(=O)O[C@@]12CO[C@@H]1C[C@H](O)[C@@]1(C)C(=O)[C@H](O)C3=C(C)[C@@H](OC(=O)C(NC(=O)OC(C)(C)C)C(O)c4ccccc4)C[C@@](O)([C@@H](OC(=O)c4ccccc4)[C@H]21)C3(C)C` (stereo partly drawn): the IC50 in the test on P388 stood at 4 µg/mL (≈ 4.95 µM). The Ratio is 20 in test [1], 10 in the test filed under Sus scrofa and 31 in test [2]. Take `CC(=O)O[C@@]12CO[C@@H]1C[C@H](O)[C@@]1(C)C(=O)[C@H](O)C3=C(C)[C@@H](OC(=O)C(O)C(NC(=O)CCCC(=O)O)c4ccccc4)C[C@@](O)([C@@H](OC(=O)c4ccccc4)[C@H]21)C3(C)C` (stereo partly drawn): the Ratio in the test listed under Sus scrofa is recorded as 1. Turning to `CC(=O)O[C@@]12CO[C@@H]1C[C@H](O)[C@@]1(C)C(=O)[C@H](O)C3=C(C)[C@@H](OC(=O)C(O)C(N)c4ccccc4)C[C@@](O)([C@@H](OC(=O)c4ccccc4)[C@H]21)C3(C)C` (stereo partly drawn), the Ratio in the test filed under Sus scrofa stood at 30.

With `CC(=O)O[C@H]1C(=O)[C@@]2(C)[C@H]([C@H](OC(=O)c3ccccc3)[C@]3(O)C[C@H](OC(=O)[C@@H](O)[C@H](NC(=O)c4ccccc4)c4ccccc4)C(C)=C1C3(C)C)[C@]1(OC(C)=O)CO[C@@H]1C[C@@H]2O`, the 50% inhibitory concentration (IC50) in the test with P388 was 7 µg/mL (≈ 8.2 µM). Moreover, the Ratio in test [1] came to 9; in the test listed under Sus scrofa, 4.5; in test [2], 54. With `C/C=C/C(=O)O[C@H]1C[C@@]2(O)[C@@H](OC(=O)c3ccccc3)[C@@H]3[C@]4(OC(C)=O)CO[C@@H]4C[C@H](O)[C@@]3(C)C(=O)[C@H](OC(C)=O)C(=C1C)C2(C)C`, the Ratio in the test filed under Sus scrofa is reported as 100.

In the case of `CC(=O)O[C@@]12CO[C@@H]1C[C@H](OC(=O)OCC(Cl)(Cl)Cl)[C@@]1(C)C(=O)[C@H](OC(=O)OCC(Cl)(Cl)Cl)C3=C(C)[C@@H](OC(=O)/C=C/c4ccccc4)C[C@@](O)([C@@H](OC(=O)c4ccccc4)[C@H]21)C3(C)C`, the Ratio in the test filed under Sus scrofa was 1000.

With `CC(=O)O[C@H]1C(=O)[C@@]2(C)[C@H]([C@H](OC(=O)c3ccccc3)[C@]3(O)C[C@H](OC(=O)[C@@H](NC(=O)c4ccccc4)[C@H](O)c4ccccc4)C(C)=C1C3(C)C)[C@]1(OC(C)=O)CO[C@@H]1C[C@@H]2O`, the Ratio in the test listed under Sus scrofa worked out at 110. On to `CC(=O)O[C@H]1C(=O)[C@@]2(C)[C@H]([C@H](OC(=O)c3ccccc3)[C@]3(O)C[C@H](OC(=O)C(NC(=O)OC(C)(C)C)C(O)c4ccccc4)C(C)=C1C3(C)C)[C@]1(OC(C)=O)CO[C@@H]1C[C@@H]2O` (stereo in doubt; 16c), for which, in the test filed under Sus scrofa, the Ratio is given as 10.

Regarding `CC(=O)O[C@@]12CO[C@@H]1C[C@H](O)[C@@]1(C)C(=O)[C@H](O)C3=C(C)[C@@H](OC(=O)C(O)C(NC(=O)c4ccc(S(=O)(=O)O)cc4)c4ccccc4)C[C@@](O)([C@@H](OC(=O)c4ccccc4)[C@H]21)C3(C)C` (stereo partly drawn), the IC50 in the test with P388 was over 4 µg/mL. Moreover, the Ratio in test [1] is 11; in the test filed under Sus scrofa it was 5.5; in test [2] it was over 31. Turning to `CC(=O)O[C@@]12CO[C@@H]1C[C@H](O)[C@@]1(C)C(=O)[C@H](O)C3=C(C)[C@@H](OC(=O)/C=C/c4ccccc4)C[C@@](O)([C@@H](OC(=O)c4ccccc4)[C@H]21)C3(C)C`, the Ratio in the test filed under Sus scrofa was determined as 23. On to `CC(=O)O[C@@]12CO[C@@H]1C[C@H](O)[C@@]1(C)C(=O)[C@H](O)C3=C(C)[C@@H](OC(=O)[C@@H](O)[C@H](NC(=O)c4ccccc4)c4ccccc4)C[C@@](O)([C@@H](OC(=O)c4ccccc4)[C@H]21)C3(C)C`, for which the Ratio in the test listed under Sus scrofa was 4. `CC(=O)O[C@@]12CO[C@@H]1C[C@H](O)[C@@]1(C)C(=O)[C@H](O)C3=C(C)[C@@H](OC(=O)[C@H](NC(=O)OC(C)(C)C)[C@@H](O)c4ccccc4)C[C@@](O)([C@@H](OC(=O)c4ccccc4)[C@H]21)C3(C)C`: the Ratio in the test listed under Sus scrofa turned out to be 160. In the case of `CC(=O)O[C@@]12CO[C@@H]1C[C@H](O)[C@@]1(C)C(=O)[C@H](O)C3=C(C)[C@@H](OC(=O)CC(NC(=O)OC(C)(C)C)c4ccccc4)C[C@@](O)([C@@H](OC(=O)c4ccccc4)[C@H]21)C3(C)C` (single isomer, unassigned; 10a), in the test listed under Sus scrofa, the Ratio is listed as 2.3. Regarding `CC(=O)O[C@@]12CO[C@@H]1C[C@H](O)[C@@]1(C)C(=O)[C@H](O)C3=C(C)[C@@H](OC(=O)C(O)C(NC(=O)OC(C)(C)C)c4ccccc4)C[C@@](O)([C@@H](OC(=O)c4ccccc4)[C@H]21)C3(C)C` (stereo in doubt; 13f), the Ratio in the test listed under Sus scrofa is listed as 4.3.

With `CC(=O)O[C@H]1C(=O)[C@@]2(C)[C@H]([C@H](OC(=O)c3ccccc3)[C@]3(O)C[C@H](OC(=O)C(NC(=O)OC(C)(C)C)C(O)c4ccccc4)C(C)=C1C3(C)C)[C@]1(OC(C)=O)CO[C@@H]1C[C@@H]2O` (stereo in doubt; 16d), the Ratio in the test listed under Sus scrofa is reported as 108.

As to `CC(=O)O[C@@]12CO[C@@H]1C[C@H](O)[C@@]1(C)C(=O)[C@H](O)C3=C(C)[C@@H](OC(=O)C(NC(=O)c4ccccc4)C(O)c4ccccc4)C[C@@](O)([C@@H](OC(=O)c4ccccc4)[C@H]21)C3(C)C` (stereo in doubt; 14d), the Ratio in the test filed under Sus scrofa worked out at 170. `CC(=O)O[C@@]12CO[C@@H]1C[C@H](O)[C@@]1(C)C(=O)[C@H](O)C3=C(C)[C@@H](OC(=O)CCc4ccccc4)C[C@@](O)([C@@H](OC(=O)c4ccccc4)[C@H]21)C3(C)C`: in the test listed under Sus scrofa, the Ratio stood at 17. Still for that read-out and setting: then `CC(=O)O[C@@]12CO[C@@H]1C[C@H](O)[C@@]1(C)C(=O)[C@H](O)C3=C(C)[C@@H](OC(=O)[C@@H](O)Cc4ccccc4)C[C@@](O)([C@@H](OC(=O)c4ccccc4)[C@H]21)C3(C)C`, with 3.5. Still for that read-out and setting: then `CC(=O)O[C@H]1C(=O)[C@@]2(C)[C@H]([C@H](OC(=O)c3ccccc3)[C@]3(O)C[C@H](OC(=O)C(O)C(C)O)C(C)=C1C3(C)C)[C@]1(OC(C)=O)CO[C@@H]1C[C@@H]2O` (stereo partly drawn), with 60; and `CC(=O)O[C@@]12CO[C@@H]1C[C@H](O)[C@@]1(C)C(=O)[C@H](O)C3=C(C)[C@@H](OC(=O)C(NS(=O)(=O)c4ccc(C)cc4)C(O)c4ccccc4)C[C@@](O)([C@@H](OC(=O)c4ccccc4)[C@H]21)C3(C)C` (stereo partly drawn), with 15. Take `CC(=O)O[C@@]12CO[C@@H]1C[C@H](O)[C@@]1(C)C(=O)[C@H](O)C3=C(C)[C@@H](OC(=O)C(O)C(NC(=O)c4ccccc4)c4ccccc4)C[C@@](O)([C@@H](OC(=O)c4ccccc4)[C@H]21)C3(C)C` (stereo partly drawn): the Ratio in the test filed under Sus scrofa came to 1.3. On to `CC(=O)O[C@@]12CO[C@@H]1C[C@H](O)[C@@]1(C)C(=O)[C@H](O)C3=C(C)[C@@H](OC(=O)C(O)C(O)c4ccccc4)C[C@@](O)([C@@H](OC(=O)c4ccccc4)[C@H]21)C3(C)C` (stereo partly drawn), for which the Ratio in the test filed under Sus scrofa was 3. The same measure, in the same setting: then `CC(=O)O[C@@]12CO[C@@H]1C[C@H](O)[C@@]1(C)C(=O)[C@H](O)C3=C(C)[C@@H](OC(=O)[C@H](O)[C@@H](NC(=O)c4ccccc4)c4ccccc4)C[C@@](O)([C@@H](OC(=O)c4ccccc4)[C@H]21)C3(C)C`, with 1.3.

`CC(=O)O[C@H]1C(=O)[C@@]2(C)[C@H]([C@H](OC(=O)c3ccccc3)[C@]3(O)C[C@H](OC(=O)[C@H](O)[C@@H](NC(=O)c4ccccc4)c4ccccc4)C(C)=C1C3(C)C)[C@]1(OC(C)=O)CO[C@@H]1C[C@@H]2O` [PACLITAXEL] had an IC50 with P388 of 0.27 µg/mL (≈ 0.316 µM). Further, the Ratio in test [1] came to 2. For `CC(=O)O[C@H]1C(=O)[C@]2(C)[C@@H](OC(=O)CCCC(=O)O)C[C@H]3OC[C@@]3(OC(C)=O)[C@H]2[C@H](OC(=O)c2ccccc2)[C@]2(O)C[C@H](OC(=O)C(O)C(NC(=O)c3ccccc3)c3ccccc3)C(C)=C1C2(C)C` (stereo partly drawn), in the test listed under Sus scrofa, the Ratio stood at 1. The same measure, in the same setting: then `CC(=O)O[C@H]1C(=O)[C@@]2(C)[C@H]([C@H](OC(=O)c3ccccc3)[C@]3(O)C[C@H](OC(=O)[C@@H](O)[C@H](NC(=O)OC(C)(C)C)c4ccccc4)C(C)=C1C3(C)C)[C@]1(OC(C)=O)CO[C@@H]1C[C@@H]2O`, with 30; and `CC(=O)O[C@@]12CO[C@@H]1C[C@H](OC(=O)CCCC(=O)O)[C@@]1(C)C(=O)[C@H](OC(=O)CCCC(=O)O)C3=C(C)[C@@H](OC(=O)C(O)C(NC(=O)OC(C)(C)C)c4ccccc4)C[C@@](O)([C@@H](OC(=O)c4ccccc4)[C@H]21)C3(C)C` (stereo partly drawn), with 2; and `CC(=O)O[C@@]12CO[C@@H]1C[C@H](O)[C@@]1(C)C(=O)[C@H](O)C3=C(C)[C@@H](OC(=O)[C@H](O)[C@@H](NS(=O)(=O)c4ccc(C)cc4)c4ccccc4)C[C@@](O)([C@@H](OC(=O)c4ccccc4)[C@H]21)C3(C)C`, with 5. As to `CC(=O)O[C@H]1C(=O)[C@@]2(C)[C@H]([C@H](OC(=O)c3ccccc3)[C@]3(O)C[C@H](OC(=O)C(O)C(N)c4ccccc4)C(C)=C1C3(C)C)[C@]1(OC(C)=O)CO[C@@H]1C[C@@H]2O` (stereo partly drawn), the Ratio in the test filed under Sus scrofa came out at 44. Take `CC(=O)O[C@@]12CO[C@@H]1C[C@H](O)[C@@]1(C)C(=O)[C@H](O)C3=C(C)[C@@H](OC(=O)C(O)Cc4ccccc4)C[C@@](O)([C@@H](OC(=O)c4ccccc4)[C@H]21)C3(C)C` (stereo partly drawn): the Ratio in the test filed under Sus scrofa is recorded as 4.5.

For the compound `CC(=O)O[C@@]12CO[C@@H]1C[C@H](O)[C@@]1(C)C(=O)[C@H](O)C3=C(C)[C@@H](OC(=O)C(O)C(NC(=O)OC(C)(C)C)c4ccccc4)C[C@@](O)([C@@H](OC(=O)c4ccccc4)[C@H]21)C3(C)C` (stereo in doubt; 13e), in the test listed under Sus scrofa, the Ratio is 1.8. `CC(=O)O[C@@]12CO[C@@H]1C[C@H](O)[C@@]1(C)C(=O)[C@H](O)C3=C(C)[C@@H](OC(=O)C(NC(=O)c4ccccc4)C(O)c4ccccc4)C[C@@](O)([C@@H](OC(=O)c4ccccc4)[C@H]21)C3(C)C` (stereo in doubt; 14c): the Ratio in the test filed under Sus scrofa is reported as 10.

Usually IC50 stands for the concentration that gives 50% inhibition.
